In patent US6737383B1, “Herbicidal oxadiazolidines” (priority 1999, dated 2004):

Key:
surinam grass = assay: Test B pre/postemergence surinam grass; assay type: in vivo, Brachiaria decumbens; settings: Postemergence
Outline: (§1)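 Test chemicals in a non-phytotoxic solvent mixture with surfactant were sprayed preemergence onto planted seeds and postemergence onto plants 2 to 18 cm tall (1- to 4-leaf stage). After twelve to sixteen days in a greenhouse, injury was visually rated against untreated controls from 0 (no effect) to 10 (complete control).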

soybean = assay: Test B pre/postemergence soybean; assay type: in vivo, Glycine max
Outline: as §1

rice = assay: Test B flood test rice; assay type: in vivo, Oryza sativa
Outline: (§2)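 Each value is a visual injury score relative to controls, with 10 meaning complete control and 0 no effect. Evaluation took place twelve to sixteen days after the 2-leaf-stage plants were treated and kept in the greenhouse.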

cocklebur = assay: Test B pre/postemergence cocklebur; assay type: in vivo, Xanthium strumarium
Outline: as §1

morningglory = assay: Test B pre/postemergence morningglory; assay type: in vivo, Ipomoea hederacea
Outline: as §1

bedstraw = assay: Test B pre/postemergence bedstraw; assay type: in vivo, Galium aparine
Outline: as §1

rape = assay: Test B pre/postemergence rape; assay type: in vivo, Brassica napus
Outline: as §1

pigweed = assay: Test B pre/postemergence pigweed; assay type: in vivo, Amaranthus retroflexus
Outline: as §1

velvetleaf = assay: Test B pre/postemergence velvetleaf; assay type: in vivo, Abutilon theophrasti
Outline: as §1

sugar beet = assay: Test B pre/postemergence sugar beet; assay type: in vivo, Beta vulgaris
Outline: as §1

bamyardgrass = assay: Test B flood test barnyardgrass; assay type: in vivo, Echinochloa crus-galli
Outline: as §2

wild oat = assay: Test B pre/postemergence wild oat; assay type: in vivo, Avena fatua
Outline: as §1

crabgrass = assay: Test B pre/postemergence crabgrass; assay type: in vivo, Digitaria sanguinalis
Outline: as §1

duck salad = assay: Test B flood test duck salad; assay type: in vivo, Heteranthera limosa
Outline: as §2

smallflower flatsedge = assay: Test B flood test smallflower flatsedge; assay type: in vivo, Cyperus difformis
Outline: as §2

corn = assay: Test B pre/postemergence corn; assay type: in vivo, Zea mays
Outline: as §1

[1] = Postemergence, Rate 62 g/ha, scale 0 to 10, 0 is no effect, 10 is complete control
[2] = Postemergence, Rate 125 g/ha, scale of 0 to 10 where 0 is no effect and 10 is complete control
[3] = Preemergence, Rate 125 g/ha, scale of 0 to 10 where 0 is no effect and 10 is complete control
[4] = Preemergence, Rate 250 g/ha, scale 0 (no effect) to 10 (complete control)
[5] = Rate 62 g/ha, Preemergence, scale 0 to 10
[6] = Rate 250 g/ha, Postemergence, scale 0 to 10, 0 is no effect, 10 is complete control
[7] = Rate 500 g/ha, Postemergence, scale 0 to 10, 0 is no effect, 10 is complete control
[8] = Rate 500 g/ha, Preemergence, scale 0 to 10 (0 no effect, 10 complete control)
[9] = Pre-emergence, Rate 62 g/ha, scale 0 to 10, 0 is no effect, 10 is complete control
[10] = Rate 125 g/ha, Pre-emergence section (flood test species), scale 0 to 10, 0 no effect, 10 complete control
[11] = Rate 250 g/ha, Pre-emergence (flood test species), scale 0 to 10, 0 is no effect, 10 is complete control
[12] = Rate 500 g/ha, Pre-emergence section of Table B, 0 to 10 scale (0 no effect, 10 complete control)

**Q.** Which “Plant response rating, B. signalgrass” value (surinam grass; Rate 62 g/ha, scale 0 to 10, 0 is no effect, 10 is complete control) does the source give for `CC(C)N(C(=O)n1oc(=O)n(CC2=NOCCO2)c1=O)c1ccc(Cl)cc1` [Compound 740] here?
**A.** 0

**Q.** What about the “B. signalgrass plant response rating” value (surinam grass; Rate 125 g/ha, scale of 0 to 10 where 0 is no effect and 10 is complete control) of the same compound?
**A.** 0

**Q.** And the “B. signalgrass plant response rating” value (surinam grass; Rate 250 g/ha, scale 0 to 10, 0 is no effect, 10 is complete control)?
**A.** 0

**Q.** And the “B. signalgrass plant response rating” value (surinam grass; Rate 500 g/ha, scale 0 to 10, 0 is no effect, 10 is complete control)?
**A.** 2

**Q.** What about the “Plant response rating, Soybean” value (soybean; [1]) of the same compound?
**A.** 2

**Q.** What about the “Soybean plant response rating” value (soybean; [2]) of the same compound?
**A.** 3

**Q.** What about the “Plant response rating, Soybean” value (soybean; [3]) of the same compound?
**A.** 0

**Q.** And the “Soybean plant response rating” value (soybean; [4])?
**A.** 0

**Q.** What about the “Soybean plant response rating” value (soybean; [5]) of the same compound?
**A.** 0

**Q.** And the “Soybean plant response rating” value (soybean; [6])?
**A.** 4

**Q.** What about the “Soybean plant response rating” value (soybean; [7]) of the same compound?
**A.** 6

**Q.** What about the “Soybean plant response rating” value (soybean; [8]) of the same compound?
**A.** 0

**Q.** What about the “Rice plant response rating” value (rice; [9]) of the same compound?
**A.** 0

**Q.** What about the “Rice plant response rating” value (rice; [10]) of the same compound?
**A.** 0

**Q.** What about the “Rice plant response rating” value (rice; [11]) of the same compound?
**A.** 0

**Q.** What about the “Rice plant response rating” value (rice; [12]) of the same compound?
**A.** 0

**Q.** What about the “Plant response rating, Cocklebur” value (cocklebur; [1]) of the same compound?
**A.** 0

**Q.** And the “Cocklebur plant response rating” value (cocklebur; [2])?
**A.** 0

**Q.** What about the “Plant response rating, Cocklebur” value (cocklebur; [3]) of the same compound?
**A.** 0

**Q.** What about the “Cocklebur plant response rating” value (cocklebur; [4]) of the same compound?
**A.** 0

**Q.** What about the “Cocklebur plant response rating” value (cocklebur; [5]) of the same compound?
**A.** 0

**Q.** And the “Cocklebur plant response rating” value (cocklebur; [6])?
**A.** 3

**Q.** What about the “Cocklebur plant response rating” value (cocklebur; [7]) of the same compound?
**A.** 3

**Q.** And the “Cocklebur plant response rating” value (cocklebur; [8])?
**A.** 0

**Q.** And the “Plant response rating, Morningglory” value (morningglory; [1])?
**A.** 2

**Q.** What about the “Morningglory plant response rating” value (morningglory; [2]) of the same compound?
**A.** 3

**Q.** And the “Plant response rating, Morningglory” value (morningglory; [3])?
**A.** 0

**Q.** What about the “Morningglory plant response rating” value (morningglory; [4]) of the same compound?
**A.** 0

**Q.** What about the “Morningglory plant response rating” value (morningglory; [5]) of the same compound?
**A.** 0

**Q.** And the “Morningglory plant response rating” value (morningglory; [6])?
**A.** 3

**Q.** What about the “Morningglory plant response rating” value (morningglory; [7]) of the same compound?
**A.** 7

**Q.** And the “Morningglory plant response rating” value (morningglory; [8])?
**A.** 0

**Q.** And the “Plant response rating, Bedstraw” value (bedstraw; [1])?
**A.** 0

**Q.** What about the “Bedstraw plant response rating” value (bedstraw; [2]) of the same compound?
**A.** 0

**Q.** And the “Plant response rating, Bedstraw” value (bedstraw; [3])?
**A.** 0

**Q.** What about the “Bedstraw plant response rating” value (bedstraw; [4]) of the same compound?
**A.** 0

**Q.** What about the “Bedstraw plant response rating” value (bedstraw; [5]) of the same compound?
**A.** 0

**Q.** What about the “Bedstraw plant response rating” value (bedstraw; [7]) of the same compound?
**A.** 0

**Q.** And the “Bedstraw plant response rating” value (bedstraw; [8])?
**A.** 0

**Q.** What about the “Plant response rating, Rape” value (rape; [1]) of the same compound?
**A.** 0

**Q.** And the “Rape plant response rating” value (rape; [2])?
**A.** 0

**Q.** What about the “Plant response rating, Rape” value (rape; [3]) of the same compound?
**A.** 3

**Q.** What about the “Rape plant response rating” value (rape; [4]) of the same compound?
**A.** 5

**Q.** And the “Rape plant response rating” value (rape; [5])?
**A.** 0

**Q.** What about the “Rape plant response rating” value (rape; [6]) of the same compound?
**A.** 0

**Q.** What about the “Rape plant response rating” value (rape; [7]) of the same compound?
**A.** 0

**Q.** What about the “Plant response rating, Redroot pigweed” value (pigweed; [1]) of the same compound?
**A.** 0

**Q.** And the “Redroot pigweed plant response rating” value (pigweed; [2])?
**A.** 2

**Q.** And the “Plant response rating, Redroot pigweed” value (pigweed; [3])?
**A.** 9

**Q.** And the “Redroot pigweed plant response rating” value (pigweed; [4])?
**A.** 9

**Q.** And the “Redroot pigweed plant response rating” value (pigweed; [5])?
**A.** 3

**Q.** And the “Redroot pigweed plant response rating” value (pigweed; [6])?
**A.** 4

**Q.** And the “Redroot pigweed plant response rating” value (pigweed; [7])?
**A.** 8

**Q.** And the “Redroot pigweed plant response rating” value (pigweed; [8])?
**A.** 10

**Q.** What about the “Plant response rating, Velvetleaf” value (velvetleaf; [1]) of the same compound?
**A.** 0

**Q.** What about the “Velvetleaf plant response rating” value (velvetleaf; [2]) of the same compound?
**A.** 0

**Q.** And the “Plant response rating, Velvetleaf” value (velvetleaf; [3])?
**A.** 0

**Q.** And the “Velvetleaf plant response rating” value (velvetleaf; [4])?
**A.** 0

**Q.** What about the “Velvetleaf plant response rating” value (velvetleaf; [5]) of the same compound?
**A.** 0

**Q.** And the “Velvetleaf plant response rating” value (velvetleaf; [6])?
**A.** 2

**Q.** And the “Velvetleaf plant response rating” value (velvetleaf; [7])?
**A.** 2

**Q.** What about the “Velvetleaf plant response rating” value (velvetleaf; [8]) of the same compound?
**A.** 3

**Q.** What about the “Plant response rating, Sugarbeets” value (sugar beet; [1]) of the same compound?
**A.** 0

**Q.** And the “Sugarbeets plant response rating” value (sugar beet; [2])?
**A.** 0

**Q.** And the “Sugarbeets plant response rating” value (sugar beet; [4])?
**A.** 3

**Q.** What about the “Sugarbeets plant response rating” value (sugar beet; [5]) of the same compound?
**A.** 0

**Q.** And the “Sugarbeets plant response rating” value (sugar beet; [6])?
**A.** 2

**Q.** And the “Sugarbeets plant response rating” value (sugar beet; [7])?
**A.** 2

**Q.** And the “Sugarbeets plant response rating” value (sugar beet; [8])?
**A.** 5

**Q.** And the “Barnyardgrass plant response rating” value (bamyardgrass; [9])?
**A.** 0

**Q.** And the “Barnyardgrass plant response rating” value (bamyardgrass; [10])?
**A.** 0

**Q.** And the “Barnyardgrass plant response rating” value (bamyardgrass; [11])?
**A.** 0

**Q.** And the “Barnyardgrass plant response rating” value (bamyardgrass; [12])?
**A.** 0

**Q.** And the “Plant response rating, Wild oats” value (wild oat; [1])?
**A.** 0

**Q.** What about the “Wild oats plant response rating” value (wild oat; [2]) of the same compound?
**A.** 0

**Q.** What about the “Plant response rating, Wild oats” value (wild oat; [3]) of the same compound?
**A.** 0

**Q.** What about the “Wild oats plant response rating” value (wild oat; [4]) of the same compound?
**A.** 2

**Q.** What about the “Wild oats plant response rating” value (wild oat; [5]) of the same compound?
**A.** 0

**Q.** And the “Wild oats plant response rating” value (wild oat; [6])?
**A.** 0

**Q.** What about the “Wild oats plant response rating” value (wild oat; [7]) of the same compound?
**A.** 0

**Q.** What about the “Wild oats plant response rating” value (wild oat; [8]) of the same compound?
**A.** 6

**Q.** What about the “Plant response rating, Crabgrass” value (crabgrass; [1]) of the same compound?
**A.** 0

**Q.** And the “Crabgrass plant response rating” value (crabgrass; [2])?
**A.** 0

**Q.** And the “Plant response rating, Crabgrass” value (crabgrass; [3])?
**A.** 4

**Q.** And the “Crabgrass plant response rating” value (crabgrass; [4])?
**A.** 9

**Q.** What about the “Crabgrass plant response rating” value (crabgrass; [5]) of the same compound?
**A.** 4

**Q.** What about the “Crabgrass plant response rating” value (crabgrass; [6]) of the same compound?
**A.** 9

**Q.** What about the “Crabgrass plant response rating” value (crabgrass; [7]) of the same compound?
**A.** 9

**Q.** And the “Crabgrass plant response rating” value (crabgrass; [8])?
**A.** 9

**Q.** And the “Ducksalad plant response rating” value (duck salad; [9])?
**A.** 0

**Q.** What about the “Ducksalad plant response rating” value (duck salad; [10]) of the same compound?
**A.** 0

**Q.** What about the “Ducksalad plant response rating” value (duck salad; [11]) of the same compound?
**A.** 0

**Q.** And the “Ducksalad plant response rating” value (duck salad; [12])?
**A.** 0

**Q.** And the “S. Flatsedge plant response rating” value (smallflower flatsedge; [9])?
**A.** 0

**Q.** And the “S. Flatsedge plant response rating” value (smallflower flatsedge; [10])?
**A.** 0

**Q.** And the “S. Flatsedge plant response rating” value (smallflower flatsedge; [11])?
**A.** 0

**Q.** And the “S. Flatsedge plant response rating” value (smallflower flatsedge; [12])?
**A.** 0

**Q.** What about the “Plant response rating, Corn” value (corn; [1]) of the same compound?
**A.** 0

**Q.** And the “Corn plant response rating” value (corn; [2])?
**A.** 0

**Q.** And the “Plant response rating, Corn” value (corn; [3])?
**A.** 0

**Q.** And the “Corn plant response rating” value (corn; [4])?
**A.** 0

**Q.** What about the “Corn plant response rating” value (corn; [5]) of the same compound?
**A.** 0

**Q.** What about the “Corn plant response rating” value (corn; [6]) of the same compound?
**A.** 0

**Q.** What about the “Corn plant response rating” value (corn; [7]) of the same compound?
**A.** 0

**Q.** And the “Corn plant response rating” value (corn; [8])?
**A.** 0
